Laboratory results: paper PMC2362650, “Phase I and pharmacokinetic study of the topoisomerase II catalytic inhibitor fostriecin” (British Journal of Cancer, 1999)

Assay: Phase I study: toxicity graded with NCI common toxicity criteria in patients
Format: in vivo, human
Source text: Fostriecin (CI-920) is a topoisomerase (topo) II catalytic activity inhibitor (Boritzki et al, 1988) (Figure 1). This novel class of topo II-targeting drugs is considered of potential value for treatment of patients with tumours resistant to classic topo II poisons, including anthracyclines and podophyllotoxins (Cummings and Smyth, 1993). The nuclear enzyme topo II is essential for the regulation of DNA conformation (reviewed in Osheroff et al, 1991). Central in its action is the formation of a complex with DNA. Stabilization of this complex by topo II poisons induces DNA damage and cell death (Froelich-Ammon and Osheroff, 1995). Decreased complex formation due to decreased topo II levels is considered to be an important mechanism of tumour-resistance to topo II poisons (Beck and Danks, 1991). The topo II catalytic inhibitor fostriecin is expected to have increased activity against tumour cells with low topo II levels and this was confirmed in in vitro studies (De Jong et al, 1991). […] Because of increased toxi- city of fostriecin in dogs compared to mice, a dose below one-third of the one-tenth mouse equivalent LD10, 2 mg m-2 day-1, was chosen as starting dose in humans (Clinical Brochure Fostriecin, 1991). […] We also performed an analysis of the human pharmacokinetics of fostriecin and ex vivo experiments to investigate if the plasma drug concentrations achieved were sufficient to inhibit a tenipo- side-resistant tumour cell line. The maximum tolerated dose (MTD) of fostriecin could not be established because drug supply was stopped prematurely. However, results of this study may provide a basis for continued clinical development of this agent. PATIENTS AND METHODS Patient selection, drug administration and evaluation Patient eligibility criteria were: histologically confirmed diagnosis of a solid tumour, no longer amenable to established forms of treatment; age 18-75 years; Eastern Cooperative Oncology Group (ECOG) performance status 2; life expectancy 12 weeks; no Phase I and pharmacokinetic study of the topoisomerase II catalytic inhibitor fostriecin RS de Jong1, NH Mulder1, DRA Uges2, DTh Sleijfer1, FJP Hoppener4, HJM Groen3, PHB Willemse1, WTA van der Graaf1 and EGE de Vries1 Departments of 1Medical Oncology, 2Pharmacy and Toxicology, and 3Pulmonary Diseases, University Hospital Groningen, The Netherlands; 4EORTC New Drug Development Office, Amsterdam, The Netherlands Summary We conducted a phase I and pharmacokinetic study of the topoisomerase II catalytic inhibitor fostriecin. Fostriecin was administered intravenously over 60 min on days 1-5 at 4-week intervals. Dose was escalated from 2 mg m-2 day-1 to 20 mg m-2 day-1 in 20 patients. Drug pharmacokinetics was analysed with high performance liquid chromatography with UV-detection. Plasma collected during drug administration was tested in vitro for growth inhibition of a teniposide-resistant small-cell lung cancer (SCLC) cell line. The predominant toxicities were elevated liver transaminases (maximum common toxicity criteria (CTC) grade 4) and serum creatinine (maximum CTC grade 2). […] Duration of elevated alanine-amino transferase (ALT) was dose-limiting in one patient at 20 mg m-2. Other frequent toxicities were grade 1-2 nausea/vomiting, fever and mild fatigue. […] A metabolite, most probably dephosphorylated fostriecin, was detected in plasma and urine. […] However, further escalation seems possible and is warranted to achieve potentially effective drug levels. Fostriecin has a short plasma half-life and longer duration of infusion should be considered. […]

[1] = 12.2 mg m-2, 3 patients/8 courses
[2] = 20 mg m-2, 2 patients/4 courses
[3] = one patient at 20 mg m-2 after course 2

C[C@@](O)(/C=C/[C@H]1CC=CC(=O)O1)[C@@H](C[C@@H](O)\C=C/C=C\C=C\CO)OP(=O)(O)O [fostriecin]
≤ 3 weeks: time to resolution of ALT and AST elevations after drug administration (all patients)
5: CTC-grade 1 creatinine: courses causing toxicity, all full-dose courses [1]
11: number of patients with nausea/vomiting (grade 1-2) during course 1 (20 patients) | number of courses with fever > 38C (grade 2) (human, in vivo, intravenous)
33: number of courses with nausea/vomiting (grade 1-2) (of the 42 courses at full dose)
3: CTC-grade 1 ALP: courses causing toxicity, all full-dose courses [1] | CTC-grade 2 AST: courses causing toxicity, all full-dose courses [1] | CTC-grade 2 creatinine: courses causing toxicity, all full-dose courses [1] | CTC-grade 3 AST: patients developing toxicity in first course [1]
has not been reached: maximum tolerated dose (MTD) (escalation stopped at 20 mg m-2)
1: CTC-grade 1 ALP: patients developing toxicity in first course [1] | CTC-grade 1 GGT: patients developing toxicity in first course [1] | CTC-grade 1 creatinine: patients developing toxicity in first course [1] | CTC-grade 2 ALP: courses causing toxicity, all full-dose courses [1] | CTC-grade 2 ALT: courses causing toxicity, all full-dose courses [1] | CTC-grade 2 GGT: patients developing toxicity in first course [1] | CTC-grade 3 GGT: patients developing toxicity in first course [1] | CTC-grade 3 bilirubin: courses causing toxicity, all full-dose courses [1] | CTC-grade 4 ALT: courses causing toxicity, all full-dose courses [1] | CTC-grade 4 ALT: patients developing toxicity in first course [1] | CTC-grade 1 GGT: patients developing toxicity in first course [2] | CTC-grade 1 creatinine: courses causing toxicity, all full-dose courses [2] | CTC-grade 1 creatinine: patients developing toxicity in first course [2] | CTC-grade 2 ALT: patients developing toxicity in first course [2] | CTC-grade 2 AST: courses causing toxicity, all full-dose courses [2] | CTC-grade 2 creatinine: patients developing toxicity in first course [2] | CTC-grade 3 ALT: patients developing toxicity in first course [2] | CTC-grade 3 AST: patients developing toxicity in first course [2] | CTC-grade 3 GGT: patients developing toxicity in first course [2]
Fourteen: number of patients with grade 1-2 anaemia (human, in vivo)
3.5 days: median duration of grade 3 ALT (range 1-9 days)
4: CTC-grade 3 AST: courses causing toxicity, all full-dose courses [1] | maximum CTC grade of elevated liver transaminases (human, blood, intravenous)
not affected: PT, fibrinogen, anti-thrombin III and cholinesterase levels (six patients (13 courses) at 10-20 mg m-2, days 0 and 5)
3 days: day of serum creatinine peak (median)
0: CTC-grade 1 ALT: courses causing toxicity, all full-dose courses [1] | CTC-grade 1 ALT: patients developing toxicity in first course [1] | CTC-grade 1 AST: courses causing toxicity, all full-dose courses [1] | CTC-grade 1 AST: patients developing toxicity in first course [1] | CTC-grade 2 ALP: patients developing toxicity in first course [1] | CTC-grade 2 ALT: patients developing toxicity in first course [1] | CTC-grade 2 AST: patients developing toxicity in first course [1] | CTC-grade 3 bilirubin: patients developing toxicity in first course [1] | CTC-grade 1 ALT: courses causing toxicity, all full-dose courses [2] | CTC-grade 1 ALT: patients developing toxicity in first course [2] | CTC-grade 1 AST: courses causing toxicity, all full-dose courses [2] | CTC-grade 1 AST: patients developing toxicity in first course [2] | CTC-grade 2 AST: patients developing toxicity in first course [2] | CTC-grade 2 GGT: courses causing toxicity, all full-dose courses [2] | CTC-grade 2 GGT: patients developing toxicity in first course [2]
2.5 days: day of ALT peak per course (median)
No leuco- or neutropenia: leuco- or neutropenia (human, in vivo)
28 g/L: serum albumin (hypoalbuminaemia) [3]
6: CTC-grade 2 bilirubin: courses causing toxicity, all full-dose courses [1] | CTC-grade 3 ALT: courses causing toxicity, all full-dose courses [1]
3.3 g 24 h-1: maximum transient proteinuria [3]
2: CTC-grade 1 GGT: courses causing toxicity, all full-dose courses [1] | CTC-grade 2 GGT: courses causing toxicity, all full-dose courses [1] | CTC-grade 2 bilirubin: patients developing toxicity in first course [1] | CTC-grade 2 creatinine: patients developing toxicity in first course [1] | CTC-grade 3 ALT: patients developing toxicity in first course [1] | CTC-grade 3 GGT: courses causing toxicity, all full-dose courses [1] | CTC-grade 1 ALP: courses causing toxicity, all full-dose courses [2] | CTC-grade 1 ALP: patients developing toxicity in first course [2] | CTC-grade 1 GGT: courses causing toxicity, all full-dose courses [2] | CTC-grade 2 ALT: courses causing toxicity, all full-dose courses [2] | CTC-grade 2 creatinine: courses causing toxicity, all full-dose courses [2] | CTC-grade 3 ALT: courses causing toxicity, all full-dose courses [2] | CTC-grade 3 AST: courses causing toxicity, all full-dose courses [2] | CTC-grade 3 GGT: courses causing toxicity, all full-dose courses [2] | maximum CTC grade of elevated serum creatinine (human, serum, intravenous)
one: number of patients with dose-limiting ALT elevation (grade 3 persisting > 7 days) (20 mg m-2) | number of patients with reversible thrombocytopenia (grade 2) (20 mg m-2) | number of patients with transient proteinuria grade 2 (doses 10 mg m-2 (and above)) | number of patients with fever > 39C (human, in vivo) | number of patients with grade 2 hyponatraemia (human, in vivo) | number of patients with grade 2 oedema (human, in vivo)
Eight: number of patients with mild fatigue (grade 1-2) (during drug administration and the week thereafter)
14: number of patients with increase of body temperature during course 1 (human, in vivo, intravenous, 1 course (days 1-5, 4-week interval))
three: number of patients with grade 2 LDH increases (human, in vivo)
seven: number of patients with microscopic haematuria (grade 1) (doses 6.6 mg m-2 (and above)) | number of patients with transient proteinuria grade 1 (doses 10 mg m-2 (and above)) | number of patients with hyperglycaemia grade 1-2 and/or hypoglycaemia grade 1 (human, in vivo)
17: number of patients with occasional increase of body temperature (human, in vivo, intravenous)
1-2 weeks: time to resolution of renal toxicities after last dose of each course (human, in vivo, intravenous)
four: number of patients with reversible increases of bilirubin (human, in vivo)
six: number of patients with fever > 38C (grade 2) (human, in vivo)
